Experimental findings from ChEMBL document CHEMBL5050833, “Novel cyclic trex1 inhibitors” (2020) are described below.

Experiment [1] in a line: Inhibition of human TREX1 exonuclease activity using labeled DNA oligonucleotide as substrate incubated for 30 mins and measured after 45 mins by fluorescence assay.
For experiment [2], the species on record is Homo sapiens. Kind of experiment: Binding affinity to recombinant human TREX1 incubated in PBS and measured by thermal shift binding assay.
For experiment [3], the species on record is Homo sapiens. Kind of experiment: Binding affinity to recombinant human TREX1 incubated in assay buffer and measured by thermal shift binding assay.
The species entered for experiment [4] is Mus musculus. Kind of experiment: Binding affinity to recombinant mouse TREX1 incubated in PBS and measured by thermal shift binding assay.
The species entered for experiment [5] is Mus musculus. Kind of experiment: Binding affinity to recombinant mouse TREX1 incubated in assay buffer and measured by thermal shift binding assay.
Experiment [6] can be described thus: Inhibition of mouse TREX1 exonuclease activity using labeled DNA oligonucleotide as substrate incubated for 30 mins and measured after 45 mins by fluorescence assay.

Broadly, the IC50 is the point on the concentration scale where inhibition reaches its midpoint. A higher IC50 goes with lower potency. By ΔTm is commonly meant the shift of the melting midpoint relative to a reference. With `N[C@@H]1C[C@H]2C(=O)N([C@H](CO)C(=O)NCc3ccc(Cl)c(Cl)c3)CCC(CCc3ccccc3)N2C1` (stereo partly drawn), the half-maximal inhibitory concentration (IC50) in experiment [1] and in experiment [6] was less than 1000 nM each time. Also, the ΔTm in experiment [2] was more than 8 °C; in experiment [3], more than 8 °C; in experiment [4], 4 °C; in experiment [5], 4 °C.

On to `N[C@@H]1C[C@H]2C(=O)N([C@H](CCC(=O)O)C(=O)NCc3ccc(C(F)(F)F)cc3)CCC(CCc3ccccc3)N2C1` (stereo in doubt; form 2), for which the ΔTm in experiment [2] is more than 8 °C; in experiment [3] it was more than 8 °C; in experiment [4], 4 °C; in experiment [5], 4 °C.

`N[C@@H]1C[C@H]2C(=O)N([C@H](CCC(=O)O)C(=O)NCc3ccc(Cl)c(Cl)c3)CCC(CCc3ccccc3)N2C1` (stereo in doubt; form 2): the ΔTm in experiment [3] and in experiment [4] was more than 8 °C throughout.

As for `CC(C)C[C@H](C(=O)NCc1ccc(Cl)c(Cl)c1)N1CCC(CCc2ccccc2)N2C[C@H](N)C[C@H]2C1=O` (stereo partly drawn), the IC50 in experiment [1] and in experiment [6] was less than 1000 nM each time. In addition, the ΔTm in experiment [2] is more than 8 °C; in experiment [3] it was more than 8 °C; in experiment [4] it was 4 °C; in experiment [5], 4 °C.

Turning to `N[C@@H]1C[C@H]2C(=O)N([C@H](Cc3ccc(O)cc3)C(=O)NCc3ccc(Cl)c(Cl)c3)CCC(CCc3ccccc3)N2C1` (stereo partly drawn), the IC50 in experiment [1] and in experiment [6] was less than 1000 nM each time. Also, the ΔTm in experiment [2] was more than 8 °C; in experiment [3] it was more than 8 °C; in experiment [4], 4 °C; in experiment [5], 4 °C.

Regarding `N#CCC[C@H](C(=O)NCc1ccc(Cl)c(Cl)c1)N1CCC(CCc2ccccc2)N2C[C@H](N)C[C@H]2C1=O` (stereo partly drawn), the IC50 in experiment [1] and in experiment [6] was less than 1000 nM each time.

For the compound `Cc1ccc(CNC(=O)[C@@H](CC(C)C)N2CCC(CCc3ccccc3)N3C[C@H](N)C[C@H]3C2=O)cc1` (stereo partly drawn), the half-inhibitory concentration (IC50) entry in experiment [1] and in experiment [6] was “in the range around 1000 nM” in each case.
